Values of other authors in patent US20130064803A1, “BIO-REPLENISHMENT (BioRep) FOR COGNITIVE HEALTH” (Naidu LP, priority 2011, published 2013).

Tests used:
[1] = in vivo

| share of an oral dose ending up in the bloodstream | SMILES | first-pass, share metabolized in the liver [1] |
| --- | --- | --- |
| – | C[S+](CC[C@H](N)C(=O)O)C[C@H]1O[C@@H](n2cnc3c(N)ncnc32)[C@H](O)[C@@H]1O (some centres unmarked) [SAMe, S-adenosylmethionine] | approximately 50% |
| about 70% | N[C@@H](Cc1c[nH]c2ccc(O)cc12)C(=O)O [5-HTP, 5-hydroxy-tryptophan] | – |
